We go through three molecules from article PMC8301114, “LC-ESI-LTQ-Orbitrap-MS for Profiling the Distribution of Oleacein and Its Metabolites in Rat Tissues” (Antioxidants, 2021).

Data set [1] can be described thus: Tissue distribution of OLEA and its metabolites after intragastric administration of ROO containing OLEA (LC-ESI-LTQ-Orbitrap-MS). Type of data set: in vivo, male Sprague–Dawley rats. The settings on record: for Detection in heart, spleen, thyroids, lungs, brain, kidney, and skin: 1, 2 and 4.5 h after intragastric OLEA in ROO; for Concentration in liver / Concentration in small intestine / Concentration in stomach / Tissue concentration in heart: mean ± SD. The protocol: (§1) In this study, male Sprague–Dawley rats (body weight 227 ± 11 g) were obtained from Envigo RMS Spain SL (Sant Feliu de Codines, Barcelona, Spain). The animals were acclimated for at least 1 week before the initiation of dosing with free access to food and water. They were kept at 22 ± 2 °C in an air-conditioned room on a 12-h light–12-h dark cycle. Before the experiments, the animals were fasted overnight with water available ad libitum. The experiments were performed in compliance with the Animal Experimentation Ethics Committee of the University of Barcelona, Spain and were approved by the Generalitat de Catalunya (trial no. CEEA 124/16 and no. 6435, respectively).
(§2) Before the experiment, the ROO (used as a vehicle to dissolve OLEA for intragastric administration) was analyzed by LC-ESI-LTQ-Orbitrap-MS to make sure it was free of phenolic compounds. The liquid–liquid extraction of phenolic compounds in the ROO was performed following previously described procedures. The chromatographic and mass spectrometer conditions were the same as used for the identification of metabolites (Section 2.6). Once the absence of phenolic compounds was confirmed, the OLEA was added to obtain a final concentration of 0.3 mg/mL. This concentration was chosen based on its concentration in commercial EVOO (around 300 mg/kg), and the daily ingestion recommended by the European Food Safety Authority of at least 5 mg of hydroxytyrosol and its derivatives per 20 g of olive oil.
(§3) The rats were divided into three different groups according to the time of euthanasia: 1 h (n = 4), 2 h (n = 5), and 4.5 h (n = 4). At 0 h, ROO loaded with OLEA standard was supplied to the rats (2.5 mL/300 g body weight) by intragastric administration. Additionally, a control group of rats was maintained under fasting conditions without olive oil ingestion and then similarly euthanized. The gavage volume was established following a good practice guide for substance administration and was lower than the maximum volume of lipid vehicles per kg of rat body weight that prevents elevated plasma corticosterone levels.
(§4) The rats were anesthetized with isoflurane (IsoFlo, veterinaria Esteve, Barcelona, Spain) and euthanized by exsanguinations at the aforementioned time points after the ROO ingestion. Blood samples were collected in EDTA tubes, centrifuged to obtain the plasma (3000× g, 10 min at 4 °C), and stored at −80 °C until analysis. The gastrointestinal tract (including stomach and small intestine), heart, spleen, thyroids, lungs, brain, kidney, and skin were removed from rats at the designated time points. All tissues were washed with saline solution (NaCl 0.9%) and dried with filter paper. In the case of the intestine, the portion removed was 15 cm from 2 cm posterior to the pyloric sphincter, and the intestine was also washed internally by perfusing the isotonic saline solution several times. Rat tissues were accurately weighed and stored at −80 °C until analysis.
(§5) For extraction, all samples were slowly thawed in ice. To avoid compound oxidation, the samples were handled in a room with filtered light and kept on ice throughout. The clean-up of the biological matrix (protein precipitation) was performed using a previously developed method.
A small tissue disruptor (T 10 basic ULTRA-TURRAX®, IKA laboratory technology, Staufen, Germany) was used to homogenize the thawed tissues in a 1:1 ratio (w/v) with water:ACN (1:1 (v/v) with 0.1% ascorbic acid). The samples were then sonicated for 5 min in an ice bath, shaken for 1 min (Vortex-Genie 2) and centrifuged for 10 min (11,000× g, 4 °C). To precipitate the proteins, a volume of 100 µL of the upper layer was blended with cold ACN acidified with formic acid (2%) in a 1:3 (v/v) ratio. After that, the samples were homogenized for 1 min and kept at −20 °C in a freezer for 20 min. Finally, the samples were centrifuged for 10 min (11,000× g, 4 °C) and 100 µL of supernatant was transferred to vials for analysis. […]

Data set [2] can be described thus: Plasma concentration of OLEA and its metabolites after intragastric administration of ROO containing OLEA (LC-ESI-LTQ-Orbitrap-MS). Type of data set: in vivo, male Sprague–Dawley rats. The protocol: as §1, §2, §3, §4, §5
Plasma samples were centrifuged for 10 min (11,000× g, 4 °C). Briefly, 100 µL of each sample was deproteinized with ice-cold ACN acidified with formic acid (2%) in a 1:5 (v/v) ratio. The samples were then homogenized for 1 min and kept at −20 °C in a freezer for 20 min. After that, samples were centrifuged (11,000× g, 4 °C, 10 min) and finally, 100 µL of each organic phase was transferred to vials for analysis.
The metabolic profile was determined by analyzing the samples with LC-ESI-LTQ-Orbitrap-MS. […]

On the set-up of data set [3]: method as in PMID 30469520, PMID 10745093. The settings on record: moderate lipophilicity; cited from earlier work.
On the set-up of data set [4]: method as in doi:10.1016/j.jff.2016.01.030. The settings on record: stomach at 1 h, another study; cited from earlier work.
Details of data set [5]: method as in PMID 21411025. To be noted: pH 2.0, after 4 h, partial hydrolysis releasing OH-TY; cited from earlier work.
Details of data set [6]: method as in PMID 21411025. The settings on record: in vivo study with rats; cited from earlier work.
Where [7] appears, read: 1 h after intragastric OLEA 0.3 mg/mL in ROO.
The mark [8] stands for this setting: 2 h after intragastric OLEA 0.3 mg/mL in ROO.
[9] abbreviates: 4.5 h after intragastric OLEA 0.3 mg/mL in ROO.
Setting [10] is: small intestine, 1 h after intragastric OLEA 0.3 mg/mL in ROO.
The mark [11] stands for this setting: small intestine, 2 h after intragastric OLEA 0.3 mg/mL in ROO.
[12] abbreviates: small intestine, 4.5 h after intragastric OLEA 0.3 mg/mL in ROO.
The mark [13] stands for this setting: stomach, 1 h after intragastric OLEA 0.3 mg/mL in ROO.
Where [14] appears, read: stomach, 2 h after intragastric OLEA 0.3 mg/mL in ROO.
Where [15] appears, read: stomach, 4.5 h after intragastric OLEA 0.3 mg/mL in ROO.
[16] abbreviates: 1 h after intragastric OLEA 0.3 mg/mL in ROO, mean ± SD.
The mark [17] stands for this setting: 2 h after intragastric OLEA 0.3 mg/mL in ROO, mean ± SD.
The mark [18] stands for this setting: 4.5 h after intragastric OLEA 0.3 mg/mL in ROO, mean ± SD.

Where “and” joins values, the source holds several entries; their conditions need not be identical. Identical values can stand only once. Marks after values point to notes of the source that are not given here. Where only a bound is given, the exact number is not on record here.

On to `OCCc1ccc(O)c(O)c1` [OH-TY, hydroxytyrosol], for which the “Detection in heart, spleen, thyroids, lungs, brain, kidney, and skin” value in data set [1] is listed as “not detected”. Also, the Concentration in liver was 3.34 ± 0.08 ^b nmol OLEA equivalents/g tissue in data set [1] (setting [7]), 3.83 ± 0.21 ^a nmol OLEA equivalents/g tissue in data set [1] (setting [8]) and 2.51 ± 0.07 ^c nmol OLEA equivalents/g tissue in data set [1] (setting [9]). Further, the entries for the “Concentration in small intestine” value in data set [1] (setting [10]), in data set [1] (setting [11]) and in data set [1] (setting [12]) were 4.71 ± 0.32 ^a nmol OLEA equivalents/g tissue, 3.79 ± 0.29 ^b nmol OLEA equivalents/g tissue and 2.70 ± 0.21 ^c nmol OLEA equivalents/g tissue, respectively. Also, the values for the Concentration in stomach in data set [1] (setting [13]), in data set [1] (setting [14]) and in data set [1] (setting [15]) were 13.37 ± 1.27 ^a nmol OLEA equivalents/g tissue, 7.81 ± 0.69 ^b nmol OLEA equivalents/g tissue and 5.23 ± 0.37 ^c nmol OLEA equivalents/g tissue, respectively. Also, the entries for the “Share of the total metabolites identified in plasma” value in data set [2] (1 h), in data set [2] (2 h) and in data set [2] (4.5 h) were 20%, 22% and 17%, respectively. Besides, the concentration at 1 h in data set [2] (male, Sprague-Dawley, rat, oral, 2.5 mg/kg, 1 h after intragastric OLEA 0.3 mg/mL in ROO, mean ± SD) came to 2110 ± 100 nM. For the same molecule, in data set [2] (male, Sprague-Dawley, rat, oral, 2.5 mg/kg, 2 h after intragastric OLEA 0.3 mg/mL in ROO, mean ± SD), the concentration at 2 h is 3020 ± 160 nM. Also, the concentration at 4.5 h in data set [2] (male, Sprague-Dawley, rat, oral, 2.5 mg/kg, 4.5 h after intragastric OLEA 0.3 mg/mL in ROO, mean ± SD) worked out at 1620 ± 140 nM. In addition, in data set [3], the logP is reported as ~ 0.9. Further, the “OH-TY concentration in stomach” value in data set [4] is on record as 8.75 ± 1.95 nmols/g digesta.
On to elenolic acid [EA], for which, in data set [1], the “Detection in heart, spleen, thyroids, lungs, brain, kidney, and skin” value was “not detected”. Further, the Concentration in liver in data set [1] (setting [7]) is 1.07 ± 0.06 ^b nmol OLEA equivalents/g tissue; in data set [1] (setting [8]), 1.34 ± 0.08 ^a nmol OLEA equivalents/g tissue; in data set [1] (setting [9]), 0.76 ± 0.02 ^c nmol OLEA equivalents/g tissue. Further, the results for the “Concentration in small intestine” value in data set [1] (setting [10]), in data set [1] (setting [11]) and in data set [1] (setting [12]) were 1.81 ± 0.05 ^a nmol OLEA equivalents/g tissue, 0.67 ± 0.08 ^b nmol OLEA equivalents/g tissue and 0.16 ± 0.02 ^c nmol OLEA equivalents/g tissue, respectively. Further, the Concentration in stomach is given as 7.53 ± 0.56 ^a nmol OLEA equivalents/g tissue in data set [1] (setting [13]), 4.07 ± 0.36 ^b nmol OLEA equivalents/g tissue in data set [1] (setting [14]) and 1.81 ± 0.13 ^c nmol OLEA equivalents/g tissue in data set [1] (setting [15]). The Concentration in plasma is listed as 0.43 ± 0.03 ^b nmol OLEA equivalents/mL in data set [2] (setting [16]), 0.76 ± 0.04 ^a nmol OLEA equivalents/mL in data set [2] (setting [17]) and 0.16 ± 0.02 ^c nmol OLEA equivalents/mL in data set [2] (setting [18]). The logP in data set [3] is ~ 0.9.
As for `CC=C(C=O)C(CC=O)CC(=O)OCCc1ccc(O)c(O)c1` (stereo in doubt) [OLEA, Oleacein], the “Tissue concentration in heart” value in data set [1] (heart, 1 h after acute intake of OLEA (0.3 mg/mL) in ROO) was 0.44 ± 0.07 nmol OLEA equivalents/g tissue and 0.44 ± 0.07 ^a nmol OLEA equivalents/g tissue; in data set [1] (heart, 2 h after acute intake of OLEA (0.3 mg/mL) in ROO) it was 0.45 ± 0.04 nmol OLEA equivalents/g tissue and 0.45 ± 0.04 ^a nmol OLEA equivalents/g tissue; in data set [1] (heart, 4.5 h after acute intake of OLEA (0.3 mg/mL) in ROO), 0.44 ± 0.06 nmol OLEA equivalents/g tissue and 0.44 ± 0.06 ^a nmol OLEA equivalents/g tissue. The “Concentrations detected in the heart” value in data set [1] (heart, all time points) was ≤ 0.5 nmol OLEA equivalents/g tissue. In addition, the Concentration in liver in data set [1] (setting [7]) is on record as 0.28 ± 0.02 nmol OLEA equivalents/g tissue. Besides, the results for the “Concentration in small intestine” value in data set [1] (setting [10]), in data set [1] (setting [11]) and in data set [1] (setting [12]) were 2.24 ± 0.14 ^a nmol OLEA equivalents/g tissue, 1.69 ± 0.25 ^b nmol OLEA equivalents/g tissue and 0.51 ± 0.10 ^c nmol OLEA equivalents/g tissue, respectively. Besides, the “Decrease of concentration in the small intestine relative to Cmax at 1 h” value in data set [1] (small intestine, at 2 h) was found to be 25%; in data set [1] (small intestine, at 4.5 h), 77%. Further, the “Time of Cmax in small intestine” value in data set [1] (small intestine, sampling at 1, 2, 4.5 h) is on record as 1 h. Besides, the Concentration in stomach in data set [1] (setting [13]) is on record as 8.73 ± 0.29 ^a nmol OLEA equivalents/g tissue; in data set [1] (setting [14]), 7.39 ± 0.25 ^b nmol OLEA equivalents/g tissue; in data set [1] (setting [15]) it was 5.77 ± 0.54 ^c nmol OLEA equivalents/g tissue. The “Decrease of concentration in the stomach relative to Cmax at 1 h” value in data set [1] (stomach, at 2 h) came out at 16%; in data set [1] (stomach, at 4.5 h) it was 34%. Further, the “Time of Cmax in stomach” value in data set [1] (stomach, sampling at 1, 2, 4.5 h) was 1 h. The Concentration in plasma in data set [2] (setting [16]) is 1.37 ± 0.20 nmol OLEA equivalents/mL and 1.37 ± 0.20 ^a nmol OLEA equivalents/mL; in data set [2] (setting [17]), 0.65 ± 0.07 ^b nmol OLEA equivalents/mL; in data set [2] (setting [18]), 0.67 ± 0.10 nmol OLEA equivalents/mL and 0.67 ± 0.10 ^b nmol OLEA equivalents/mL. In addition, the “Time of Cmax in plasma” value in data set [2] (sampling at 1, 2, 4.5 h) amounted to 1 h. Moreover, the “OLEA remaining after incubation at pH 2.0” value in data set [5] is listed as “about 67%”. Moreover, the “Degradation in the gastric region” value in data set [6] is reported as “complete degradation”.
